One assay concerns the target CYP11B2 (Homo sapiens (Human), UniProt P19099). The experiment in a line: G-402 cellular enzyme assay, human CYP11B2 (aldosterone release). It counts as cell-based. Conditions: G-402 cells expressing human CYP11B2, 1 μM Deoxycorticosterone. The text has this: (§1) The expression plasmids contains the ORF for either human/cyno CYP11B1 or CYP11B2 under the control of a suitable promoter (CMV-promoter) and a suitable resistance marker (neomycin). Using standard techniques the expression plasmid is transfected into G-402 cells and these cells are then selected for expressing the given resistance markers. Individual cell-clones are then selected and assessed for displaying the desired enzymatic activity using 11-Deoxycorticosterone (Cyp 11B2) or 11-Deoxycortisol (Cyp 11B1) as a substrate.
(§2) G-402 cells expressing CYP11 constructs were established as described above and maintained in McCoy's 5a Medium Modified, ATCC Catalog No. 30-2007 containing 10% FCS and 400 μg/ml G418 (Geneticin) at 37° C. under an atmosphere of 5% CO2/95% air. […] For assaying enzymatic activity, cells were plated onto 96 well plates and incubated for 16 h. An aliquot of the supernatant is then transferred and analyzed for the concentration of the expected product (Aldosterone for CYP11B2; Cortisol for CYP11B1). The concentrations of these steroids can be determined using HTRF assays from CisBio analyzing either Aldosterone or Cortisol.
(§3) Inhibition of the release of produced steroids can be used as a measure of the respective enzyme inhibition by test compounds added during the cellular enzyme assay. The dose dependent inhibition of enzymatic activity by a compound is calculated by means of plotting added inhibitor concentrations (x-axes) vs. measured steroid/product level (y-axes). The inhibition is then calculated by fitting the following 4-parameter sigmoidal function (Morgan-Mercer-Flodin (MMF) model) to the raw data points using the least squares method:
(§4) [formula] wherein, A is the maximum y value, B is the EC50 factor determined using XLFit, C is the minimum y value and D is the slope value.
(§5) EC50 values for compounds claimed herein were tested with the G402-based assay system described. Cyp 11B2 enzyme activity was tested in presence of 1 μM Deoxycorticosterone and variable amounts of inhibitors; Cyp 11B1 enzyme activity was tested in presence of 1 μM Deoxycortisol and variable amounts of inhibitors.

Another assay deals with human CYP11B1 (Homo sapiens (Human), UniProt P15538). The experiment in a line: G-402 cellular enzyme assay, human CYP11B1 (cortisol release). It counts as cell-based. As to conditions: G-402 cells expressing human CYP11B1, 1 μM Deoxycortisol.
From the text: as §1, §2, §3, §4, §5

CYP11B2, sequence (P19099 25-503): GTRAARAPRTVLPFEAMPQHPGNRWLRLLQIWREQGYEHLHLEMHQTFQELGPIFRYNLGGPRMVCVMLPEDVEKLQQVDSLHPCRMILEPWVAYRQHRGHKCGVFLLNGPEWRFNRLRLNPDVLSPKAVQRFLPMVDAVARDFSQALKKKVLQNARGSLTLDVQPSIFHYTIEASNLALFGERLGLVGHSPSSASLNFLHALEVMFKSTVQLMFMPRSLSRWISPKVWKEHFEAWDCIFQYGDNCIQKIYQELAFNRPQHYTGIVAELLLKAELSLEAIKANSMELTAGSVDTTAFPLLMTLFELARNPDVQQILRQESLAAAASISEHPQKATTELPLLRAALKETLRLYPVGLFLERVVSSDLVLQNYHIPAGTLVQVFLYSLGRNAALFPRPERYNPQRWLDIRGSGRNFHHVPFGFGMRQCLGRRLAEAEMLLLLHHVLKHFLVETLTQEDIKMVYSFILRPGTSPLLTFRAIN
human CYP11B1, sequence (P15538 25-503): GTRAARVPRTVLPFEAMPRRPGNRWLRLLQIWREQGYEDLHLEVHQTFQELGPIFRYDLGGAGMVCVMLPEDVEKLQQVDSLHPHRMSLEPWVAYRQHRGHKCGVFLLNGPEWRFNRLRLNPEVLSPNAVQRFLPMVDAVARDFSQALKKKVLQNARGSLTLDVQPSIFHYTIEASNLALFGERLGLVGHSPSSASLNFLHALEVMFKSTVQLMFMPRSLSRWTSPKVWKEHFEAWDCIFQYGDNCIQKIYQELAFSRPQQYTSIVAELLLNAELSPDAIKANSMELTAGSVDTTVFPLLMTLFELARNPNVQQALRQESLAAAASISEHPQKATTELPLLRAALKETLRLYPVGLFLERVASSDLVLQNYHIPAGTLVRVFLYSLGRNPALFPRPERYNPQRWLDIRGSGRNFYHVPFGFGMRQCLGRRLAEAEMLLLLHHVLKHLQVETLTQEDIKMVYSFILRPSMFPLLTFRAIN

Turning to `CCC(=O)NC1CCCc2c(-c3ccc(Cl)cc3F)cncc21` (racemic) [Example 30, (rac)-N-(4-(4-Chloro-2-fluorophenyl)-5,6,7,8-tetrahydroisoquinolin-8-yl)propionamide], the EC50 (commonly the midpoint of the concentration-response curve) was 28 nM on CYP11B2 and 1500 nM on human CYP11B1.

As for `CCC(=O)NC1CCCc2c(-c3ccc(C(F)(F)F)cc3F)cncc21` (racemic) [Example 33, (rac)-N-(4-(2-Fluoro-4-(trifluoromethyl)phenyl)-5,6,7,8-tetrahydroisoquinolin-8-yl)propionamide], the EC50 is 159 nM at CYP11B2 and 14700 nM at human CYP11B1.

Take `CCC(=O)NC1CCCc2c(-c3ccc(Cl)c(F)c3)cncc21` (racemic) [Example 36, (rac)-N-(4-(4-Chloro-3-fluorophenyl)-5,6,7,8-tetrahydroisoquinolin-8-yl)propionamide]: the EC50 at CYP11B2 was determined as 14 nM; on human CYP11B1 it was 1010 nM.

Regarding `CCC(=O)NC1CCCc2c(-c3ccc(C(F)(F)F)c(F)c3)cncc21` (racemic) [Example 39, (rac)-N-(4-(3-Fluoro-4-(trifluoromethyl)phenyl)-5,6,7,8-tetrahydroisoquinolin-8-yl)propionamide], the EC50 was 29 nM on CYP11B2 and 3240 nM on human CYP11B1.

Regarding `CCC(=O)NC1CCCc2c(-c3ccc(F)cc3F)cncc21` (racemic) [Example 42, (rac)-N-(4-(2,4-Difluorophenyl)-5,6,7,8-tetrahydroisoquinolin-8-yl)propionamide], the EC50 at CYP11B2 is 109 nM; at human CYP11B1, 2400 nM.

As for `CCC(=O)NC1CCCc2c(-c3cc(F)c(F)cc3F)cncc21` (racemic) [Example 43, (rac)-N-(4-(2,4,5-Trifluorophenyl)-5,6,7,8-tetrahydroisoquinolin-8-yl)propionamide], the values for the EC50 on CYP11B2 and on human CYP11B1 were 27 nM and 1150 nM, respectively.

As for `CCC(=O)NC1CCCc2c(-c3ccc(F)c(F)c3)cncc21` (racemic) [Example 44, (rac)-N-(4-(3,4-Difluorophenyl)-5,6,7,8-tetrahydroisoquinolin-8-yl)propionamide], the results for the EC50 on CYP11B2 and on human CYP11B1 were 47 nM and 826 nM, respectively.

As to `CCC(=O)NC1CCCc2c(-c3ccc(Cl)c(Cl)c3)cncc21` (racemic) [Example 45, (rac)-N-(4-(3,4-Dichlorophenyl)-5,6,7,8-tetrahydroisoquinolin-8-yl)propionamide], the values for the EC50 at CYP11B2 and on human CYP11B1 were 3 nM and 177 nM, respectively.

Regarding `CCC(=O)NC1CCc2c(-c3ccc(C(F)(F)F)cc3)cncc21` (racemic) [Example 49, (rac)-N-(4-(4-(Trifluoromethyl)phenyl)-6,7-dihydro-5H-cyclopenta[c]pyridin-7-yl)propionamide], the EC50 at CYP11B2 is 79 nM; on human CYP11B1 it was 4040 nM.

Consider `CCC(=O)NC1CCc2c(-c3ccc(Cl)c(F)c3)cncc21` (racemic) [Example 55, (rac)-N-(4-(4-Chloro-3-fluorophenyl)-6,7-dihydro-5H-cyclopenta[c]pyridin-7-yl)propionamide], for which the EC50 at CYP11B2 came out at 12 nM; on human CYP11B1, 184 nM.

Consider `CCC(=O)NC1CCc2c(-c3ccc(F)c(C)c3)cncc21` (racemic) [Example 58, (rac)-N-(4-(4-Fluoro-3-methylphenyl)-6,7-dihydro-5H-cyclopenta[c]pyridin-7-yl)propionamide], for which the EC50 on CYP11B2 came out at 10 nM; at human CYP11B1, 156 nM.

In the case of `CCC(=O)NC1CCc2c(-c3ccc(C(F)(F)F)cc3F)cncc21` (racemic) [Example 61, (rac)-N-(4-(2-Fluoro-4-(trifluoromethyl)phenyl)-6,7-dihydro-5H-cyclopenta[c]pyridin-7-yl)propionamide], the EC50 at CYP11B2 stood at 44 nM; on human CYP11B1, 3610 nM.

Regarding `CCS(=O)(=O)NC1CCc2c(-c3ccc(C(F)(F)F)cc3)cncc21` (racemic) [Example 64, (rac)-N-(4-(4-(Trifluoromethyl)phenyl)-6,7-dihydro-5H-cyclopenta[c]pyridin-7-yl)ethanesulfonamide], the EC50 on CYP11B2 was 730 nM; at human CYP11B1 it was 12700 nM.

Regarding `CCS(=O)(=O)NC1CCc2c(-c3ccc(C(F)(F)F)c(F)c3)cncc21` (racemic) [Example 71, (rac)-N-(4-(3-Fluoro-4-(trifluoromethyl)phenyl)-6,7-dihydro-5H-cyclopenta[c]pyridin-7-yl)ethanesulfonamide], the values for the EC50 at CYP11B2 and on human CYP11B1 were 242 nM and 3020 nM, respectively.

As for `OC1CCc2c(-c3ccc(C(F)(F)F)cc3F)cncc21` (racemic) [Example 80, (rac)-4-(2-Fluoro-4-(trifluoromethyl)phenyl)-6,7-dihydro-5H-cyclopenta[c]pyridin-7-ol], the values for the EC50 on CYP11B2 and on human CYP11B1 were 4.5 nM and 427 nM, respectively.

Regarding `N#Cc1ccc(-c2cncc3c2CCC3O)cc1` (racemic) [Example 81, (rac)-4-(7-Hydroxy-6,7-dihydro-5H-cyclopenta[c]pyridin-4-yl)benzonitrile], the EC50 amounted to 1.3 nM on CYP11B2 and 12 nM on human CYP11B1.

Turning to `OC1CCc2c(-c3ccc(C(F)(F)F)c(F)c3)cncc21` (racemic) [Example 82, (rac)-4-(3-Fluoro-4-(trifluoromethyl)phenyl)-6,7-dihydro-5H-cyclopenta[c]pyridin-7-ol], the EC50 is 5.2 nM at CYP11B2 and 71 nM on human CYP11B1.

For the molecule `OC1CCc2c(-c3ccc(C(F)(F)F)cc3)cncc21` (racemic) [Example 83, (rac)-4-(4-(Trifluoromethyl)phenyl)-6,7-dihydro-5H-cyclopenta[c]pyridin-7-ol], the values for the EC50 on CYP11B2 and on human CYP11B1 were 16.9 nM and 740 nM, respectively.

As for `CC1(O)CCc2c(-c3ccc(C(F)(F)F)cc3)cncc21` (racemic) [Example 84, (rac)-7-Methyl-4-(4-(trifluoromethyl)phenyl)-6,7-dihydro-5H-cyclopenta[c]pyridin-7-ol], the figures for the EC50 at CYP11B2 and at human CYP11B1 were 4.8 nM and 5 nM, respectively.

Regarding `NC1CCc2c(-c3ccc(C(F)(F)F)c(F)c3)cncc21` (racemic) [Example 89, (rac)-4-(3-Fluoro-4-trifluoromethyl-phenyl)-6,7-dihydro-5H-[2]pyrindin-7-ylamine], the EC50 at CYP11B2 stood at 54.7 nM; at human CYP11B1 it was 1380 nM.

For `CCC(=O)NC1CCc2c(-c3ccc(C(F)(F)F)c(F)c3)cncc21` (racemic) [Example 90, (rac)-N-(4-(3-Fluoro-4-(trifluoromethyl)phenyl)-6,7-dihydro-5H-cyclopenta[c]pyridin-7-yl)propionamide], the figures for the EC50 at CYP11B2 and on human CYP11B1 were 26.7 nM and 1900 nM, respectively.

On to `O=S(=O)(NC1CCc2c(-c3ccc(C(F)(F)F)c(F)c3)cncc21)C1CC1` (racemic) [Example 91, (rac)-Cyclopropanesulfonic acid [4-(3-fluoro-4-trifluoromethyl-phenyl)-6,7-dihydro-5H-[2]pyrindin-7-yl]-amide], for which the EC50 at CYP11B2 worked out at 301 nM; at human CYP11B1, 389 nM.

With `CCC(=O)OC1CCc2c(-c3ccc(C(F)(F)F)c(F)c3)cncc21` (racemic) [Example 92, (rac)-Propionic acid 4-(3-fluoro-4-trifluoromethyl-phenyl)-6,7-dihydro-5H-[2]pyrindin-7-yl ester], the EC50 worked out at 16.4 nM at CYP11B2 and 441 nM at human CYP11B1.

For `NC1CCc2c(-c3ccc(C(F)(F)F)cc3)cncc21` (racemic) [Example 93, (rac)-4-(4-Trifluoromethyl-phenyl)-6,7-dihydro-5H-[2]pyrindin-7-ylamine], the EC50 is 86.3 nM at CYP11B2 and 364 nM on human CYP11B1.

With `O=S(=O)(NC1CCc2c(-c3ccc(C(F)(F)F)cc3)cncc21)C1CC1` (racemic) [Example 94, (rac)-Cyclopropanesulfonic acid [4-(4-trifluoromethyl-phenyl)-6,7-dihydro-5H-[2]pyrindin-7-yl]-amide], the EC50 was determined as 148 nM on CYP11B2 and 2330 nM on human CYP11B1.

As for `CS(=O)(=O)NC1CCc2c(-c3ccc(C(F)(F)F)cc3)cncc21` (racemic) [Example 95, (rac)-N-[4-(4-Trifluoromethyl-phenyl)-6,7-dihydro-5H-[2]pyrindin-7-yl]-methanesulfonamide], the EC50 on CYP11B2 worked out at 1800 nM; on human CYP11B1, 1960 nM.

Regarding `CCCS(=O)(=O)NC1CCc2c(-c3ccc(C(F)(F)F)cc3)cncc21` (racemic) [Example 96, (rac)-Propane-1-sulfonic acid [4-(4-trifluoromethyl-phenyl)-6,7-dihydro-5H-[2]pyrindin-7-yl]-amide], the EC50 at CYP11B2 was 373 nM; on human CYP11B1, 3870 nM.

For the molecule `CC(C)(C)OC(=O)COC1CCc2c(-c3ccc(C(F)(F)F)cc3)cncc21` (racemic) [Example 97, (rac)-tert-Butyl 2-(4-(4-(trifluoromethyl)phenyl)-6,7-dihydro-5H-cyclopenta[c]pyridin-7-yloxy)acetate], the half-maximal effective concentration (EC50) came to 1.4 nM on CYP11B2 and 72.4 nM at human CYP11B1.

For the origin of these results see US9187429B2, “Phenyl-tetrahydroisoquinoline derivatives” (Hoffmann-La Roche Inc., priority 2012, dated 2015).
